Here are results for ten molecules from ChEMBL document CHEMBL1201862, “PubChem BioAssay data set” (2004).

Test systems include SNB-19; COLO 205; NCI-H23; U-251; UACC-257; SK-MEL-28; SK-OV-3; HOP-92; EKVX; SF-539; SW-620; RXF 393; NCI-H226; HT-29; LOX IMVI.
Holding throughout (test): growth of human tumour cells (NCI), 48 h

Structures are written as SMILES.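 Where inhibition never reached the appropriate level, the endpoint shown equals the highest concentration tested. Otherwise, values were interpolated linearly from a five-concentration, 48-hour dose response in 96-well plates. Here, GI50 denotes the concentration required for 50% inhibition of growth.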 Activity calls are given as the source filed them. Rule as the data show it: active = GI50 up to about 1.1 µM and inactive = higher.

As to `N=c1oc2c(O)c(O)ccc2cc1C(N)=O`, the GI50 in the assay on SNB-19 is > 100 µM (inactive); with COLO 205, 41.6 µM (inactive); in the assay on NCI-H23 it was > 100 µM (inactive); in the assay on U-251 it was 90.6 µM (inactive); in the assay on UACC-257 it was 32.1 µM (inactive); in the assay on SK-MEL-28, 85.7 µM (inactive). Also, the GI50 in the assay on SK-OV-3 was > 100 µM (inactive); in the assay on HOP-92, > 100 µM (inactive); in the assay on EKVX, 47.2 µM (inactive); with SF-539 it was > 100 µM (inactive); with SW-620, 32.1 µM (inactive); in the assay with RXF 393, 50.2 µM (inactive). Further, the GI50 with NCI-H226 and in the assay on HT-29 was > 100 µM (inactive) in each case.

Regarding `CN1C(=O)c2cccc3c([N+](=O)[O-])ccc(c23)C1=O`, the GI50 with SNB-19 is 14.2 µM (inactive); in the assay with COLO 205 it was 7.26 µM (inactive); in the assay with NCI-H23, 11.9 µM (inactive); with U-251, 3.7 µM (inactive); in the assay on LOX IMVI it was 6.12 µM (inactive); in the assay on UACC-257 it was 9.53 µM (inactive). The GI50 is 18.8 µM (inactive) with SK-MEL-28; 14.7 µM (inactive) in the assay on SK-OV-3; 6.52 µM (inactive) in the assay with HOP-92; 13.7 µM (inactive) in the assay with EKVX; 13.2 µM (inactive) in the assay on SF-539; 2.43 µM (inactive) with SW-620. In addition, the GI50 in the assay on RXF 393 is 3.1 µM (inactive); in the assay with NCI-H226, 1.56 µM (inactive).

Regarding `Cc1ccc(S(=O)(=O)ON/N=C2/C3OC3[C@@H]3CCCC[C@H]23)cc1` (some centres undefined), the GI50 is > 100 µM (inactive) with SNB-19; > 100 µM (inactive) in the assay on COLO 205; > 100 µM (inactive) in the assay with NCI-H23; > 100 µM (inactive) in the assay with U-251; 0.692 µM (active) with UACC-257; > 100 µM (inactive) with SK-MEL-28. For the same molecule, the GI50 in the assay with HOP-92 was > 100 µM (inactive); in the assay with EKVX, > 100 µM (inactive); with SF-539, > 100 µM (inactive); with SW-620, > 100 µM (inactive); in the assay with RXF 393, 39.1 µM (inactive); in the assay with NCI-H226, > 100 µM (inactive). The GI50 in the assay on HT-29 is > 100 µM (inactive).

For the molecule `CCOC(=O)C1C(=O)C(=O)N2CCc3c([nH]c4ccccc34)C12` (centres undefined), the GI50 with SNB-19, in the assay with COLO 205, in the assay on NCI-H23, in the assay with U-251, in the assay on SK-MEL-28 and in the assay on SK-OV-3 was > 100 µM (inactive) each time. Also, the GI50 in the assay with HOP-92, with EKVX, in the assay with SF-539, in the assay on SW-620, in the assay with RXF 393 and in the assay with HT-29 was > 100 µM (inactive) throughout.

For the molecule `CCOC(=O)NC(=O)c1cn(CCN2CCNCC2)c(=O)[nH]c1=O`, the GI50 in the assay with SNB-19, in the assay on COLO 205, in the assay on NCI-H23, in the assay on U-251, in the assay on LOX IMVI and with SK-MEL-28 was > 100 µM (inactive) in each case. Also, the GI50 in the assay on SK-OV-3, in the assay with HOP-92, with EKVX, with SF-539, in the assay with SW-620 and with RXF 393 was > 100 µM (inactive) throughout. Moreover, the GI50 in the assay on NCI-H226 and in the assay on HT-29 was > 100 µM (inactive) each time.

For `O=S1(=O)CS(=O)(=O)OCCCCCO1`, the GI50 with SNB-19, in the assay with COLO 205, in the assay with NCI-H23, with U-251, in the assay on LOX IMVI and with UACC-257 was > 100 µM (inactive) throughout. Also, the GI50 in the assay on SK-MEL-28, in the assay with SK-OV-3, with HOP-92, with EKVX, in the assay on SW-620 and with RXF 393 was > 100 µM (inactive) throughout. In addition, the GI50 in the assay with NCI-H226 and with HT-29 was > 100 µM (inactive) each time.

Take `C[N+]1(C)C/C(=C\c2ccc(O)cc2)C(=O)/C(=C/c2ccc(O)cc2)C1`: the GI50 in the assay with SNB-19 was > 100 µM (inactive); in the assay with COLO 205, 47.1 µM (inactive); with U-251 it was 49.5 µM (inactive); in the assay with LOX IMVI, 56.8 µM (inactive); in the assay on UACC-257, > 100 µM (inactive); with SK-MEL-28 it was > 100 µM (inactive). Also, the GI50 in the assay with SK-OV-3 was > 100 µM (inactive); in the assay with HOP-92, > 100 µM (inactive); in the assay on EKVX, > 100 µM (inactive); in the assay with SF-539, 65 µM (inactive); with SW-620, > 100 µM (inactive); in the assay with RXF 393 it was > 100 µM (inactive). For the same molecule, the GI50 in the assay with HT-29 was > 100 µM (inactive).

In the case of `C[C@H]1[C@H](C)CC[C@]2(C(=O)O)CCC3(COC(=O)/C=C/c4ccc(O)cc4)C(=CCC4[C@@]5(C)CC[C@H](O)C(C)(C)C5CC[C@]43C)[C@H]12` (some centres undefined), the GI50 in the assay with SNB-19 is 5.11 µM (inactive); with COLO 205, 3.99 µM (inactive); in the assay on U-251, 2.33 µM (inactive); in the assay with LOX IMVI, 5.24 µM (inactive); in the assay with UACC-257 it was 14.7 µM (inactive); in the assay with SK-MEL-28 it was 10.8 µM (inactive). Also, the GI50 in the assay with SK-OV-3 is 1.63 µM (inactive); in the assay on EKVX, 11 µM (inactive); with SF-539, 4.17 µM (inactive); in the assay on SW-620, 3.36 µM (inactive); in the assay on RXF 393, 10.9 µM (inactive); with NCI-H226 it was 7.91 µM (inactive). The GI50 in the assay on HT-29 is 6.12 µM (inactive).

As to `CC(=O)OC1C[C@H]2C(OC(=O)c3ccccc3)C3C4(OC(C)=O)COC4C[C@H](OC(C)=O)[C@@]3(C)C(OC(C)=O)[C@H](OC(C)=O)C(=C1C)C2(C)C` (some centres undefined), the GI50 in the assay with SNB-19 was 24.2 µM (inactive); with COLO 205, 42.7 µM (inactive); in the assay on NCI-H23, 52.8 µM (inactive); with LOX IMVI, 40.9 µM (inactive); in the assay on UACC-257 it was 58.6 µM (inactive); in the assay on SK-MEL-28, > 100 µM (inactive). Also, the GI50 in the assay on SK-OV-3 is 34.1 µM (inactive); with EKVX, 50.7 µM (inactive); in the assay on SF-539, 50 µM (inactive); in the assay on SW-620, 57.9 µM (inactive); in the assay with RXF 393, 16.2 µM (inactive); in the assay on NCI-H226, 34.1 µM (inactive). In the assay on HT-29, the GI50 was 49.3 µM (inactive).

For `c1ccc2nc(-c3ccc4c(c3)OCO4)ccc2c1`, the GI50 was 73.5 µM (inactive) with SNB-19; 74.6 µM (inactive) in the assay on COLO 205; 47.1 µM (inactive) in the assay on NCI-H23; 53.6 µM (inactive) in the assay with U-251; 26.1 µM (inactive) in the assay on LOX IMVI; 15.6 µM (inactive) in the assay on UACC-257. The GI50 in the assay with SK-MEL-28 was > 100 µM (inactive); in the assay with HOP-92, 2.8 µM (inactive); in the assay with EKVX, 24.9 µM (inactive); in the assay on SF-539, 56.9 µM (inactive); in the assay with SW-620 it was 77.6 µM (inactive); in the assay with RXF 393 it was 15.2 µM (inactive). The GI50 in the assay with NCI-H226 is 21.6 µM (inactive); in the assay on HT-29 it was 24.7 µM (inactive).
